Data: US20210139959A1, “MODIFIED NUCLEOTIDE TRIPHOSPHATES FOR MOLECULAR ELECTRONIC SENSORS” (priority 2016, published 2021)

Test system: polymerase, e.g., E. coli Pol I
Conditions: DNA template A20-C3-A30-G (SEQ ID NO: 3), FIG. 9; T signals are increased current; interpretation of the data
Description: In this example, 7-deaza-dGTP (see FIG. 14B) was used as a modified dGTP. The signals were obtained for the DNA template {GTCA}10-[sequence] (SEQ ID NO: 2), comprising the 7-deaza modified dGTP.
In this embodiment, the signal data are obtained for the DNA template {GTCA}10-[sequence] (SEQ ID NO: 2), when a modified dGTP is used (7-deaza dGTP of FIG. 14B).

## Nc1nc2c(ccn2[C@H]2C[C@H](O)[C@@H](COP(=O)(O)OP(=O)(O)OP(=O)(O)O)O2)c(=O)[nH]1 [7-deaza dGTP, 7-deaza-2′-deoxyguanosine-5′-triphosphate]
  modified dGTP incorporation signal (current): reduction in current
